Assay results from patent US9675647B2, “Prophylactic and/or therapeutic agent for functional gastrointestinal disorders” (MEIJI CO., LTD., priority 2007, dated 2017).

Test system: distal colon longitudinal muscle (colon specimen)
Assay: Magnus method, effects of sodium propionate and sodium acetate (Example 5)
Design: species or system rat
Conditions: for effect on contractile force (in words) / effect on contraction frequency (in words): Example 5, 10, 30, 100 μL of 0.1 M solution
Description: Seven-week-old SD type male rats were reared and habituated for one week, then sacrificed to excise the colon. Then, about 1 cm of the longitudinal muscle of the colon was isolated from the distal colon (a portion at about 2 to 3 cm to the appendix side from the anus), and cut into two pieces in the longitudinal layer direction (hereinafter, this is also referred to as colon specimen). Each colon specimen was hung with resting tension of 1 g in a Magnus tube filled with Krebs buffer under the condition described below, and a mixed gas of 95% oxygen and 5% carbon dioxide was passed thereto. Then, the colon specimens were equilibrated for about one hour while changing the Krebs buffer every 15 minutes.
Distilled water was added to 6.92 g of NaCl, 0.35 g of KCl, 0.29 g of MgSO4.7H2O, 0.16 g of KH2PO4, 2.1 g of glucose, 0.28 g of CaCl2, and 2.1 g of NaHCO3 to obtain 1 L. • Temperature of Krebs buffer in the Magnus tube: 32° C. • Volume of Krebs buffer introduced into the Magnus tube: 10 mL. Preparation of Test Substances
These were used as test substance aqueous solutions in the assessment test described below. Meanwhile, distilled water was used as control.
The measurement of tension and observation of muscle conditions were carried out for 15 minutes. Tension measurement charts were recorded using a recorder adjusted such that a 5 cm displacement occurs per tension of 1 g on the measurement charts. The resulting measurement charts were used to observe peaks of tension associated with muscle contraction. The contraction frequency (times/minute) was calculated from the number of peaks (times) that appeared per unit time (minute), the contractile force (g) was calculated from the peak height (cm), and numerical values were used for evaluation. With the obtained results, comparisons between the groups were further assessed for significant differences by the Student's t-test.

[1] = 10 μL of 0.1 mol/L aqueous solution added to 10 mL Krebs buffer
[2] = 30 μL of 0.1 mol/L aqueous solution added to 10 mL Krebs buffer
[3] = 100 μL of 0.1 mol/L aqueous solution added to 10 mL Krebs buffer

Question: Which results are given for `CC(=O)[O-].[Na+]` [SODIUM ACETATE, sodium acetate]?
Answer: effect on contractile force (in words): neither a contractile force-increasing effect nor a contractile force-suppressing effect; effect on contraction frequency (in words): neither a contraction frequency-enhancing effect nor a contraction frequency-suppressing effect

Question: Which results are given for `CCC(=O)[O-].[Na+]` [SODIUM PROPIONATE, sodium propionate]?
Answer: CONTRACTILE FORCE [1]: 1.15 ± 0.72 g; CONTRACTION FREQUENCY [1]: 0.47 ± 0.14 TIMES/MINUTE; CONTRACTILE FORCE [2]: 1.24 ± 0.77 g; CONTRACTION FREQUENCY [2]: 0.73 ± 0.19 TIMES/MINUTE; CONTRACTILE FORCE [3]: 1.20 ± 0.68 g; CONTRACTION FREQUENCY [3]: 0.73 ± 0.38 TIMES/MINUTE; effect on contractile force (in words): neither a contractile force-increasing effect nor a contractile force-suppressing effect; effect on contraction frequency (in words): neither a contraction frequency-enhancing effect nor a contraction frequency-suppressing effect
